Assays:
IκBα and ERK1/2 = settings: LPS-induced; ref [22]; cited from earlier work
From the text: (§1) NF-κB is one of the most important inflammatory switches that comprise a series of transcription factors that regulate the expressions of various proinflammatory cytokines (IL-1, IL-6, IL-8 and TNF-α). NF-κB activation is depended on the degradation and phosphorylation of IκBα [12].

[1] = test system: LPS-induced cytokine release; settings: by decreasing both IκBα and ERK1/2 phosphorylation; ref [22]; cited from earlier work
RAW264.7 cells [2] = assay: FAM-2006 internalization within RAW264.7 cells, laser confocal scanning; type: cell-based; settings: peptide 4.5 μM preincubated with FAM-2006 1.5 μM; 30 min; n = 100
Method: Figure 5 Synthetic peptide (SP) inhibited ODN2006 internalization, as assessed using laser confocal scanning (Scale bar = 20 μm). RAW264.7 cells (1 × 10^6 cells) grown on 2-cm glass bottom dishes were treated with normal medium, 1.5 μM of FAM-labeled ODN2006 (FAM-2006) that had been preincubated with SP (0, 0.5, 1.5 or 4.5 μM) or unrelated peptide (URP; 4.5 μM) at 37 °C for 15 min. After treatment for 30 min, cells were washed with warm phosphate buffered saline (PBS) and fixed with 4% (m/v) paraformaldehyde, then stained with DAPI (4′,6-diamidino-2-phenylindole) (blue). The intracellular FAM-2006 (green) was observed using a laser confocal microscope (A); Mean fluorescence intensity (MFI) values (B) and the percentages of cells with FAM-2006 dots (green fluorescence) (C) were calculated by the ZENlite 2012 software (n = 100). “**”, p < 0.01; “#”, p > 0.05 vs. FAM-2006 alone.
The RAW264.7 cell line was purchased from American Type Culture Collection (ATCC, Manassas, VA, USA). Cells were cultured in DMEM (high glucose) medium containing 10% FCS in a 37 °C humidified atmosphere with 5% CO2. Cells diluted with 0.4% trypan blue in phosphate-buffered saline (PBS, 0.1 mM, pH 7.2–7.4) were counted using a hemocytometer. […]

ODN2006 = assay: IAsys biosensor binding to immobilized biotinylated ODN2006; settings: IAsys Plus biosensor; peptide 50 μM
Method: Figure 8 Synthetic peptide (SP) specifically binds ODN2006. (A) Binding curves generated by the IAsys biosensor. Biotinylated ODN2006 was immobilized on the surface of a streptavidin-coated cuvette. A series of concentration of SP (3.1, 6.3, 12.5, 25 or 50 μM) or unrelated peptide (URP) (50 μM) were added separately into the cuvette to generate the binding curves. Data were analyzed using FASTplot, and the dissociation equilibrium constant (KD) of SP was calculated using FASTfit; (B) Binding curves generated by the Biacore biosensor. Biotinylated ODN2006 was immobilized on a streptavidin-coated chip, and then a series of concentrations of SP (0.63, 1.25, 2.5, 5 or 10 μM) or URP (10 μM) were loaded separately to generate the binding curves. Data analysis and KD calculation were performed using the BIAevaluation software.
The affinity assay was firstly carried out using an IAsys Plus affinity biosensor (Thermo Labsystem, Altrincham, Cheshire, UK), according to our previous report. Biotinylated ODN2006 was immobilized on the surface of a streptavidin-coated cuvette according to the user manual. […] Binding curves were analyzed and visualized using FASTplot (Thermo), and the dissociation equilibrium constant (KD) of SP with ODN2006 was calculated using FASTfit (Thermo).

NF-κB p65 subunit = assay: NF-κB activity assay, p65 subunit in nuclear extract of RAW264.7 cells (Trans^AM ELISA); type: cell-based; settings: peptide alone 4.5 μM; 4 h; n = 3
Method: Figure 3 Synthetic peptide (SP) inhibited NF-κB activation induced by CpG oligodeoxynucleotides (CpG ODN) in RAW264.7 cells. RAW264.7 cells (5.0 × 10^6 cells) grown in six-well plates were treated with 1.5 μM of ODN2006 (A) or ODN107 (B) preincubated with SP (0, 0.5, 1.5, or 4.5 μM) or unrelated peptide (URP) (4.5 μM) at 37 °C for 15 min. After incubation for 4 h, the cells were collected to extract nuclear proteins. The p65 subunit was detected using enzyme-linked immunosorbent assay (ELISA) kits. Data from one of three independent experiments are shown (n = 3). “*”, p < 0.05 vs. ODN2006 or ODN107; “**”, p < 0.01 vs. ODN2006 or ODN107; “#”, p > 0.05 vs. ODN2006 or ODN107.
(§2) The RAW264.7 cell line was purchased from American Type Culture Collection (ATCC, Manassas, VA, USA). Cells were cultured in DMEM (high glucose) medium containing 10% FCS in a 37 °C humidified atmosphere with 5% CO2. Cells diluted with 0.4% trypan blue in phosphate-buffered saline (PBS, 0.1 mM, pH 7.2–7.4) were counted using a hemocytometer.
RAW264.7 cells (5.0 × 10^6 cells) were placed in six-well plates for 4 h, and the supernatants were then replaced with fresh medium containing 1.5 μM of ODN2006 or ODN107 that had been preincubated with SP (0, 0.5, 1.5, or 4.5 μM) or URP (4.5 μM) at 37 °C for 15 min. After incubation for 4 h, the cells were collected to extract nuclear proteins. Equal amounts of each sample were used to detect the DNA binding activity of the NF-κB p65 subunit using Trans^AM NF-κB ELISA kits (Active Motif), according to the manufacturer’s instructions.

RAW264.7 cells [3] = assay: TNF-α and IL-6 release from RAW264.7 cells, both cytokines stated together (ELISA); type: cell-based, mouse; settings: peptide alone, without CpG ODN; 6 h
Method: Figure 1 Synthetic peptide (SP) decreased TNF-α and IL-6 release from RAW264.7 cells treated with CpG oligodeoxynucleotides (CpG ODN). RAW264.7 cells (4.0 × 10^5 cells) grown in 48-well plates were treated with 1.5 μM of ODN2006 or ODN107 preincubated with SP (0, 0.5, 1.5, or 4.5 μM) or unrelated peptide (URP) (4.5 μM) at 37 °C for 15 min. After incubation for 6 h, the supernatants were collected to detect TNF-α (A) and IL-6 (B) using enzyme-linked immunosorbent assay (ELISA) kits. Data from one of three independent experiments are shown (n = 4). “*”, p < 0.05 vs. ODN2006 or ODN107; “**”, p < 0.01 vs. ODN2006 or ODN107; “#”, p > 0.05 vs. ODN2006 or ODN107.
Experiments were performed as described in Figure 1. The concentrations of ODN2006, LPS, PAM3 and SP were 1.5 μM, 20 ng/mL, 5 μg/mL and 1.5 μM, respectively. Data from one of three independent experiments are shown (n = 3).
as §2
RAW264.7 cells (4.0 × 10^5 cells) were incubated in 48-well plates for 4 h, and supernatants were replaced with 0.4 mL of serum-free DMEM medium containing 1.5 μM of ODN2006 or ODN107, which had been preincubated with 0, 0.5, 1.5 or 4.5 μM of SP or 4.5 μM of URP at 37 °C for 15 min. After incubation for 6 h, the supernatants were collected to detect TNF-α and IL-6 concentrations using corresponding ELISA kits (eBioscience).

[4] = test system: CpG ODN-induced cytokine release; settings: ref [19],[20]; cited from earlier work
From the text: CpG ODN-induced diseases, such as sepsis and some autoimmune disorders, are triggered by uncontrolled release of proinflammatory cytokines, e.g., TNF-α and IL-6 [18]. […] Herein, we firstly evaluated the inhibitory effect of SP on CpG ODN-induced cytokine release in the cellular tests. Tw ... || NF-κB is one of the most important inflammatory switches that comprise a series of transcription factors that regulate the expressions of various proinflammatory cytokines (IL-1, IL-6, IL-8 and TNF-α). NF-κB activation is depended on the degradation and phosphorylation of IκBα [12].

[5] = test system: IκBα phosphorylation and NF-κB activation; settings: ref [19],[20]; cited from earlier work
From the text: as §1

## COc1ccc(/C=C/c2cc(O)cc(O)c2)cc1 [desoxyrhapontigenin]
IκBα and ERK1/2
  effect on IκBα and ERK1/2 phosphorylation: decreasing both of IκBα and ERK1/2 phosphorylation
[1]
  effect on LPS-induced cytokine release: inhibited LPS-induced cytokine release

## LQTLDLRDNALTTIHFIPSIPD [URP, unrelated peptide derived from LRR14 of human TLR5, used as negative control]
RAW264.7 cells [2]
  mean fluorescence intensity (MFI) produced by FAM-2006 within the cells: no such effect
ODN2006
  binding response to ODN2006: no such response
NF-κB p65 subunit
  effect of peptide alone on p65 activation: no effect
RAW264.7 cells [3]
  effect of peptide alone on TNF-α and IL-6 release: no influence on cytokines release

## kukoamine B
[4]
  effect on CpG ODN-induced cytokine release: inhibitors of CpG ODN-induced cytokine release
  effect on proinflammatory cytokines: inhibited proinflammatory cytokines
[5]
  effect on IκBα phosphorylation and NF-κB activation: inhibitors of IκBα phosphorylation and NF-κB activation
